The structures appear in SMILES notation.

Sequence of Asialoglycoprotein receptor 1 (Rattus norvegicus) (P02706 whole entry, looked up): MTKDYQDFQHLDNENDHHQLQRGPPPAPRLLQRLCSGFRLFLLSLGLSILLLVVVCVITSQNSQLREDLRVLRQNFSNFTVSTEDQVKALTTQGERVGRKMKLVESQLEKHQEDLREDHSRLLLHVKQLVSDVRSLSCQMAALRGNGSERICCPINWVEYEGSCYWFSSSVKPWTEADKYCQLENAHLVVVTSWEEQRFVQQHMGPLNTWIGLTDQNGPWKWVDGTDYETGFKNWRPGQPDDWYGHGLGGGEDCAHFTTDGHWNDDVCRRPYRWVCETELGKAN

This experiment addresses Asialoglycoprotein receptor 1 (Rattus norvegicus) (UniProt P02706). Description: Affinity tested by in vitro competition assay of [125I]ASOR binding to parenchymal rat liver cells.
What is called Ki is the dissociation constant of the complex between target and ligand, obtained from inhibition or displacement. A higher Ki goes with lower affinity. As for `O=C(CCCCO[C@@H]1O[C@@H](CO)[C@H](O)[C@H](O)[C@@H]1O)NCC(=O)NCCCC(=O)OCC(COC(=O)CCCNC(=O)CNC(=O)CCCCO[C@@H]1O[C@@H](CO)[C@H](O)[C@H](O)[C@@H]1O)(COC(=O)CCCNC(=O)CNC(=O)CCCCO[C@@H]1O[C@@H](CO)[C@H](O)[C@H](O)[C@@H]1O)NC(=O)CNC(=O)OCc1ccccc1` [Galactoside analogue], the Ki is 0.093 µM. Under `O=C(CCCCO[C@@H]1O[C@@H](CO)[C@H](O)[C@H](O)[C@@H]1O)NCCCNC(=O)CCOCC(COCCC(=O)NCCCNC(=O)CCCCO[C@@H]1O[C@@H](CO)[C@H](O)[C@H](O)[C@@H]1O)(COCCC(=O)NCCCNC(=O)CCCCO[C@@H]1O[C@@H](CO)[C@H](O)[C@H](O)[C@@H]1O)NC(=O)CNC(=O)OCc1ccccc1` [Galactoside analogue] stands 0.093 µM; under `CC(C)CCCC(C)[C@H]1CC[C@H]2[C@@H]3CC=C4C[C@@H](OC(=O)CNC(=O)CCCCC(=O)NCC(=O)NC(COCOCCOCCOCCOCCO[C@@H]5O[C@@H](CO)[C@H](O)[C@H](O)[C@@H]5O)(COCOCCOCCOCCOCCO[C@@H]5O[C@@H](CO)[C@H](O)[C@H](O)[C@@H]5O)COCOCCOCCOCCOCCO[C@@H]5O[C@@H](CO)[C@H](O)[C@H](O)[C@@H]5O)CC[C@]4(C)[C@H]3CC[C@]12C` (stereo partly drawn) [TG(20)C-Galactoside analogue], 0.2 µM.

The record behind these values is BindingDB's records for doi:10.1021/jm981078h (Leiden University, 1999).
